Results reported in PubChem BioAssay AID330 (DTP/NCI, 2004).
Several values for one entry are separate records, joined by “and”; a condition that tells them apart may be missing. Equal entries are not always repeated. Toxic doses and inconclusive results are not listed.

System: P388 leukemia ip, CD2F1 mice, survival T/C
Experiment: NCI In Vivo Anticancer Drug Screen. Data for tumor model P388 Leukemia (intraperitoneal) in CD2F1 (CDF1) mice
Conditions: endpoint: median survival time, higher = longer survival
Outline: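 Mice carrying the transplanted tumor received test compound or vehicle. Survival was recorded in each group, and the value is the treated-group measurement divided by that of the vehicle-treated control group.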

[1] = dose: 60.0 mg/kg/injection, schedule: Q01DX005 (ip), vehicle: saline with Tween-80
[2] = dose: 120.0 mg/kg/injection, schedule: Q01DX005 (ip), vehicle: saline with Tween-80
[3] = dose: 240.0 mg/kg/injection, schedule: Q01DX005 (ip), vehicle: saline with Tween-80
[4] = dose: 50.0 mg/kg/injection, schedule: Q01DX005 (ip), vehicle: saline with Tween-80
[5] = dose: 100.0 mg/kg/injection, schedule: Q01DX005 (ip), vehicle: saline with Tween-80
[6] = dose: 200.0 mg/kg/injection, schedule: Q01DX005 (ip), vehicle: saline with Tween-80

## O=[N+]([O-])c1ccccc1Sc1cccc(Sc2ccccc2[N+](=O)[O-])n1
[1]
  T/C: 100 % of control
[2]
  T/C: 105 % of control
[3]
  T/C: 102 % of control

## NCCNC(c1ccccc1)C(O)c1ccccc1 (stereo not drawn)
dose: 50.0 mg/kg/injection, schedule: Q04DX002 (ip), vehicle: Klucel (hydroxypropylcellulose) (HPC)
  T/C: 102 % of control
dose: 100.0 mg/kg/injection, schedule: Q04DX002 (ip), vehicle: Klucel (hydroxypropylcellulose) (HPC)
  T/C: 100 % of control

## CC(C)CNc1ncnc2n[nH]nc12
[4]
  T/C: 100 % of control
[5]
  T/C: 103 % of control
[6]
  T/C: 100 % of control

## CC1=C(C)C(=O)C(CCl)=[C-]C1=O.[Co].[c-]1[c-][c-][cH-][c-]1
[4]
  T/C: 123 % of control

## CNC(=O)OCc1c(COC(=O)NC)c(-c2ccc(Cl)cc2)n(C)c1-c1ccccc1
dose: 12.5 mg/kg/injection, schedule: Q01DX009 (ip), vehicle: distilled water + Tween-80
  T/C: 154 % of control
dose: 25.0 mg/kg/injection, schedule: Q01DX009 (ip), vehicle: distilled water + Tween-80
  T/C: 157 % of control and 172 % of control
dose: 50.0 mg/kg/injection, schedule: Q01DX009 (ip), vehicle: distilled water + Tween-80
  T/C: 181 % of control

## CCOC(=O)c1cnc2c(C(F)(F)F)cccc2c1Nc1ccc2c(c1)OCO2
dose: 60.0 mg/kg/injection, schedule: Q01DX005 (ip), vehicle: Klucel + Tween-80
  T/C: 100 % of control
dose: 120.0 mg/kg/injection, schedule: Q01DX005 (ip), vehicle: Klucel + Tween-80
  T/C: 103 % of control
dose: 240.0 mg/kg/injection, schedule: Q01DX005 (ip), vehicle: Klucel + Tween-80
  T/C: 97 % of control

## COc1cccc(C(=O)CC(c2ccccc2)C(C)(C)[N+](=O)[O-])c1 (stereo not drawn)
dose: 25.0 mg/kg/injection, schedule: Q01DX005 (ip), vehicle: saline with Tween-80
  T/C: 105 % of control
[4]
  T/C: 99 % of control
[5]
  T/C: 99 % of control

## CC1(C)C(=O)C=CC2(C)C1CC(=O)C1(C)C2CCC2(C)C(c3ccoc3)OC(=O)C3OC321 (stereo not drawn)
dose: 1.5 mg/kg/injection, schedule: Q01DX009 (ip), vehicle: Klucel (hydroxypropylcellulose) (HPC)
  T/C: 98 % of control and 102 % of control
dose: 3.0 mg/kg/injection, schedule: Q01DX009 (ip), vehicle: Klucel (hydroxypropylcellulose) (HPC)
  T/C: 98 % of control and 102 % of control
dose: 6.0 mg/kg/injection, schedule: Q01DX009 (ip), vehicle: Klucel (hydroxypropylcellulose) (HPC)
  T/C: 91 % of control and 96 % of control
dose: 12.0 mg/kg/injection, schedule: Q01DX009 (ip), vehicle: Klucel (hydroxypropylcellulose) (HPC)
  T/C: 102 % of control and 96 % of control
dose: 24.0 mg/kg/injection, schedule: Q01DX009 (ip), vehicle: Klucel (hydroxypropylcellulose) (HPC)
  T/C: 100 % of control and 102 % of control

## CC(=O)CSCP(=O)(c1ccccc1)c1ccccc1
[4]
  T/C: 100 % of control
[5]
  T/C: 99 % of control
[6]
  T/C: 99 % of control

## O=C(Cc1ccccn1)c1ccccc1
dose: 100.0 mg/kg/injection, schedule: Q01DX009 (ip), vehicle: Klucel (hydroxypropylcellulose) (HPC)
  T/C: 109 % of control
dose: 200.0 mg/kg/injection, schedule: Q01DX009 (ip), vehicle: Klucel (hydroxypropylcellulose) (HPC)
  T/C: 108 % of control
dose: 400.0 mg/kg/injection, schedule: Q01DX009 (ip), vehicle: Klucel (hydroxypropylcellulose) (HPC)
  T/C: 110 % of control

## COc1ccc(CCNC(=O)CCN2C(=O)CCC2=O)cc1OC
dose: 100.0 mg/kg/injection, schedule: Q01DX009 (ip), vehicle: saline sonified
  T/C: 105 % of control
dose: 200.0 mg/kg/injection, schedule: Q01DX009 (ip), vehicle: saline sonified
  T/C: 105 % of control
dose: 400.0 mg/kg/injection, schedule: Q01DX009 (ip), vehicle: saline sonified
  T/C: 110 % of control

## CCOP(=O)(O)C1CCCC(C)[N-]1.CCOP(=O)(O)C1CCCC(C)[N-]1.[Co+2] (stereo not drawn)
dose: 25.0 mg/kg/injection, schedule: Q04DX003 (ip), vehicle: Klucel (hydroxypropylcellulose) (HPC)
  T/C: 107 % of control
dose: 50.0 mg/kg/injection, schedule: Q04DX003 (ip), vehicle: Klucel (hydroxypropylcellulose) (HPC)
  T/C: 95 % of control
dose: 100.0 mg/kg/injection, schedule: Q04DX003 (ip), vehicle: Klucel (hydroxypropylcellulose) (HPC)
  T/C: 99 % of control and 105 % of control

## COc1cc([N+](=O)[O-])ccc1NC(=O)C(F)(F)F
[1]
  T/C: 100 % of control
[2]
  T/C: 104 % of control
[3]
  T/C: 101 % of control
